We go through 20 molecules from patent US20230077362A1 (CORTEVA AGRISCIENCE LLC, priority 2019, published 2023).

Structures are written as SMILES.

Assay [1] deals with Beet Armyworm (Spodoptera exigua) ("BAW"), second instar larvae. The assay is described as follows: Bioassay on beet armyworm (BAW), 128-well diet tray assay. Format: in vivo. Conditions: Spodoptera exigua, read-out: BAW rating. In outline:
(§1)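 Sealed trays, 25° C., 14:10 light:dark, 5–7 d. Per-well % mortality recorded, mean of eight wells reported.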

Assay [2] concerns Cabbage Looper (Trichoplusia ni) ("CL"), second instar larvae. Nature of the assay: Bioassay on cabbage looper (CL), 128-well diet tray assay. Type of assay: in vivo. The settings on record: Trichoplusia ni, read-out: CL rating. In outline: as §1

Turning to `COCc1ccc(C)cc1N1C(=O)CS/C1=N\C(=O)Nc1ccc(-c2cn(-c3ccc(S(F)(F)(F)(F)F)cc3)cn2)cc1F` [Compound J592, (Z)-1-(2-Fluoro-4-(1-(4-(pentafluoro-λ^6-sulfaneyl)phenyl)-1H-imidazol-4-yl)phenyl)-3-(3-(2-(methoxymethyl)-5-methylphenyl)-4-oxothiazolidin-2-ylidene)urea], the pest or weed control at 50 µg/cm2 in assay [1] and in assay [2] was 50 to 100% throughout.

On to `CCOC(C)c1ccc(C)cc1N1C(=O)CS/C1=N\C(=O)Nc1ccc(-c2cn(-c3ccc(S(F)(F)(F)(F)F)cc3)cn2)cc1F` (stereo not shown) [Compound J594, (Z)-1-(3-(2-(1-Ethoxyethyl)-5-methylphenyl)-4-oxothiazolidin-2-ylidene)-3-(2-fluoro-4-(1-(4-(pentafluoro-λ^6-sulfaneyl)phenyl)-1H-imidazol-4-yl)phenyl)urea], for which the pest or weed control at 50 µg/cm2 in assay [1] and in assay [2] was 50 to 100% in each case.

Consider `CCCOc1ccc(C)cc1N1C(=O)CS/C1=N\C(=O)Nc1ccc(-c2cn(-c3ccc(S(F)(F)(F)(F)F)cc3)cn2)cc1F` [Compound J595, (Z)-1-(2-Fluoro-4-(1-(4-(pentafluoro-λ^6-sulfaneyl)phenyl)-1H-imidazol-4-yl)phenyl)-3-(3-(5-methyl-2-propoxyphenyl)-4-oxothiazolidin-2-ylidene)urea], for which the pest or weed control at 50 µg/cm2 in assay [1] and in assay [2] was 50 to 100% each time.

On to `Cc1ccc(OCC(F)(F)F)c(N2C(=O)CS/C2=N\C(=O)Nc2ccc(-c3cn(-c4ccc(S(F)(F)(F)(F)F)cc4)cn3)cc2F)c1` [Compound J596, (Z)-1-(2-Fluoro-4-(1-(4-(pentafluoro-λ^6-sulfaneyl)phenyl)-1H-imidazol-4-yl)phenyl)-3-(3-(5-methyl-2-(2,2,2-trifluoroethoxy)phenyl)-4-oxothiazolidin-2-ylidene)urea], for which the pest or weed control at 50 µg/cm2 in assay [1] and in assay [2] was 50 to 100% in each case.

For the molecule `Cc1ccc(OCCC(F)(F)F)c(N2C(=O)CS/C2=N\C(=O)Nc2ccc(-c3cn(-c4ccc(S(F)(F)(F)(F)F)cc4)cn3)cc2F)c1` [Compound J597, (Z)-1-(2-Fluoro-4-(1-(4-(pentafluoro-λ^6-sulfaneyl)phenyl)-1H-imidazol-4-yl)phenyl)-3-(3-(5-methyl-2-(3,3,3-trifluoropropoxy)phenyl)-4-oxothiazolidin-2-ylidene)urea], the pest or weed control at 50 µg/cm2 in assay [1] and in assay [2] was 50 to 100% in each case.

Turning to `Cc1ccc(COCC(F)(F)F)c(N2C(=O)CS/C2=N\C(=O)Nc2ccc(-c3cn(-c4ccc(S(F)(F)(F)(F)F)cc4)cn3)cc2F)c1` [Compound J598, (Z)-1-(2-Fluoro-4-(1-(4-(pentafluoro-λ^6-sulfaneyl)phenyl)-1H-imidazol-4-yl)phenyl)-3-(3-(5-methyl-2-((2,2,2-trifluoroethoxy)methyl)phenyl)-4-oxothiazolidin-2-ylidene)urea], the pest or weed control at 50 µg/cm2 in assay [1] and in assay [2] was 50 to 100% in each case.

As to `COC(c1ccc(C)cc1N1C(=O)CS/C1=N\C(=O)Nc1ccc(-c2cn(-c3ccc(S(F)(F)(F)(F)F)cc3)cn2)cc1F)C(F)(F)F` (stereo not shown) [Compound J599, (Z)-1-(2-Fluoro-4-(1-(4-(pentafluoro-λ^6-sulfaneyl)phenyl)-1H-imidazol-4-yl)phenyl)-3-(3-(5-methyl-2-(2,2,2-trifluoro-1-methoxyethyl)phenyl)-4-oxothiazolidin-2-ylidene)urea], the pest or weed control at 50 µg/cm2 in assay [1] and in assay [2] was 50 to 100% each time.

Consider `CN(C)c1ccc(C(F)(F)F)c(N2C(=O)CS/C2=N\C(=O)Nc2ccc(-c3cn(-c4ccc(S(F)(F)(F)(F)F)cc4)cn3)cc2F)c1` [Compound J600, (Z)-1-(3-(5-(Dimethylamino)-2-(trifluoromethyl)phenyl)-4-oxothiazolidin-2-ylidene)-3-(2-fluoro-4-(1-(4-(pentafluoro-λ^6-sulfaneyl)phenyl)-1H-imidazol-4-yl)phenyl)urea], for which the pest or weed control at 50 µg/cm2 in assay [1] and in assay [2] was 50 to 100% each time.

On to `COCc1ccc(N(C)C)cc1N1C(=O)CS/C1=N\C(=O)Nc1ccc(-c2cn(-c3ccc(S(F)(F)(F)(F)F)cc3)cn2)cc1F` [Compound J601, (Z)-1-(3-(5-(Dimethylamino)-2-(methoxymethyl)phenyl)-4-oxothiazolidin-2-ylidene)-3-(2-fluoro-4-(1-(4-(pentafluoro-λ^6-sulfaneyl)phenyl)-1H-imidazol-4-yl)phenyl)urea], for which the pest or weed control at 50 µg/cm2 in assay [1] and in assay [2] was 50 to 100% each time.

In the case of `CCCc1ccc(N(C)C)cc1N1C(=O)CS/C1=N\C(=O)Nc1ccc(-c2cn(-c3ccc(S(F)(F)(F)(F)F)cc3)cn2)cc1F` [Compound J602, (Z)-1-(3-(5-(Dimethylamino)-2-propylphenyl)-4-oxothiazolidin-2-ylidene)-3-(2-fluoro-4-(1-(4-(pentafluoro-λ^6-sulfaneyl)phenyl)-1H-imidazol-4-yl)phenyl)urea], the pest or weed control at 50 µg/cm2 in assay [1] and in assay [2] was 50 to 100% throughout.

Consider `CC(C)c1ccc(N(C)C)cc1N1C(=O)CS/C1=N\C(=O)Nc1ccc(-c2cn(-c3ccc(S(F)(F)(F)(F)F)cc3)cn2)cc1F` [Compound J603, (Z)-1-(3-(5-(Dimethylamino)-2-isopropylphenyl)-4-oxothiazolidin-2-ylidene)-3-(2-fluoro-4-(1-(4-(pentafluoro-λ^6-sulfaneyl)phenyl)-1H-imidazol-4-yl)phenyl)urea], for which the pest or weed control at 50 µg/cm2 in assay [1] and in assay [2] was 50 to 100% in each case.

On to `CC(C)c1cc(F)c(N(C)C)cc1N1C(=O)CS/C1=N\C(=O)Nc1ccc(-c2cn(-c3ccc(S(F)(F)(F)(F)F)cc3)cn2)cc1F` [Compound J604, (Z)-1-(3-(5-(Dimethylamino)-4-fluoro-2-isopropylphenyl)-4-oxothiazolidin-2-ylidene)-3-(2-fluoro-4-(1-(4-(pentafluoro-λ^6-sulfaneyl)phenyl)-1H-imidazol-4-yl)phenyl)urea], for which the pest or weed control at 50 µg/cm2 in assay [1] and in assay [2] was 50 to 100% each time.

With `CC(C)c1ccc(C#N)cc1N1C(=O)CS/C1=N\C(=O)Nc1ccc(-c2cn(-c3ccc(S(F)(F)(F)(F)F)cc3)cn2)cc1F` [Compound J605, (Z)-1-(3-(5-Cyano-2-isopropylphenyl)-4-oxothiazolidin-2-ylidene)-3-(2-fluoro-4-(1-(4-(pentafluoro-λ^6-sulfaneyl)phenyl)-1H-imidazol-4-yl)phenyl)urea], the pest or weed control at 50 µg/cm2 in assay [1] and in assay [2] was 50 to 100% each time.

As for `COC(C)c1ccc(C#N)cc1N1C(=O)CS/C1=N\C(=O)Nc1ccc(-c2cn(-c3ccc(S(F)(F)(F)(F)F)cc3)cn2)cc1F` (stereo not shown) [Compound J606, (Z)-1-(3-(5-Cyano-2-(1-methoxyethyl)phenyl)-4-oxothiazolidin-2-ylidene)-3-(2-fluoro-4-(1-(4-(pentafluoro-λ^6-sulfaneyl)phenyl)-1H-imidazol-4-yl)phenyl)urea], the pest or weed control at 50 µg/cm2 in assay [1] and in assay [2] was 50 to 100% in each case.

As to `Cc1ccc(C(C)C)c(N2C(=O)CS/C2=N\C(=O)Nc2ccc(-c3nnc(-c4ccc(OC(F)(F)F)cc4)o3)cc2F)c1` [Compound J607, (Z)-1-(2-fluoro-4-(5-(4-(trifluoromethoxy)phenyl)-1,3,4-oxadiazol-2-yl)phenyl)-3-(3-(2-isopropyl-5-methylphenyl)-4-oxothiazolidin-2-ylidene)urea], the pest or weed control at 50 µg/cm2 in assay [1] and in assay [2] was 50 to 100% in each case.

As to `CCCc1ccc(C)cc1N1C(=O)CS/C1=N\C(=O)Nc1ccc(-c2nnc(-c3ccc(OC(F)(F)F)cc3)o2)cc1F` [Compound J608, (Z)-1-(2-Fluoro-4-(5-(4-(trifluoromethoxy)phenyl)-1,3,4-oxadiazol-2-yl)phenyl)-3-(3-(5-methyl-2-propylphenyl)-4-oxothiazolidin-2-ylidene)urea], the pest or weed control at 50 µg/cm2 in assay [1] and in assay [2] was 50 to 100% in each case.

Consider `COCc1ccc(C)cc1N1C(=O)CS/C1=N\C(=O)Nc1ccc(-c2nnc(-c3ccc(OC(F)(F)F)cc3)o2)cc1F` [Compound J609, (Z)-1-(2-Fluoro-4-(5-(4-(trifluoromethoxy)phenyl)-1,3,4-oxadiazol-2-yl)phenyl)-3-(3-(2-(methoxymethyl)-5-methylphenyl)-4-oxothiazolidin-2-ylidene)urea], for which the pest or weed control at 50 µg/cm2 in assay [1] and in assay [2] was 50 to 100% in each case.

For the molecule `CCOCc1ccc(C)cc1N1C(=O)CS/C1=N\C(=O)Nc1ccc(-c2nnc(-c3ccc(OC(F)(F)F)cc3)o2)cc1F` [Compound J610, (Z)-1-(3-(2-(Ethoxymethyl)-5-methylphenyl)-4-oxothiazolidin-2-ylidene)-3-(2-fluoro-4-(5-(4-(trifluoromethoxy)phenyl)-1,3,4-oxadiazol-2-yl)phenyl)urea], the pest or weed control at 50 µg/cm2 in assay [1] and in assay [2] was 50 to 100% throughout.

In the case of `CN(C)c1ccc(C(F)(F)F)c(N2C(=O)CS/C2=N\C(=O)Nc2ccc(-c3nnc(-c4ccc(OC(F)(F)F)cc4)o3)cc2F)c1` [Compound J611, (Z)-1-(3-(5-(Dimethylamino)-2-(trifluoromethyl)phenyl)-4-oxothiazolidin-2-ylidene)-3-(2-fluoro-4-(5-(4-(trifluoromethoxy)phenyl)-1,3,4-oxadiazol-2-yl)phenyl)urea], the pest or weed control at 50 µg/cm2 in assay [1] and in assay [2] was 50 to 100% each time.

On to `COCc1ccc(N(C)C)cc1N1C(=O)CS/C1=N\C(=O)Nc1ccc(-c2nnc(-c3ccc(OC(F)(F)F)cc3)o2)cc1F` [Compound J612, (Z)-1-(3-(5-(Dimethylamino)-2-(methoxymethyl)phenyl)-4-oxothiazolidin-2-ylidene)-3-(2-fluoro-4-(5-(4-(trifluoromethoxy)phenyl)-1,3,4-oxadiazol-2-yl)phenyl)urea], for which the pest or weed control at 50 µg/cm2 in assay [1] and in assay [2] was 50 to 100% each time.
